Measurements taken from patent US8133471B2, “CLK-peptide and SLK-peptide” (New York University, priority 2003, dated 2012).

Legend:
[1] = test system: denatured collagen type-IV; assay: Solid phase ELISA, labeled CLK-peptide binding to denatured collagen type-IV
Protocol: FIG. 15 CLK-Peptide Reacts with a Cryptic Epitope in Collagen Type-IV In Vitro. Reactivity of biotin-labeled CLK-Peptide was assessed by solid phase ELISA. Reactivity was monitored by incubation with HRP-labeled streptavidin. […] All data was corrected for nonspecific binding of HRP-labeled streptavidin only. Data bars represent the mean optical density (O.D.)±standard deviation from triplicate wells. Assays were repeated 2 to 3 times with similar results.
The CLK-peptide was labeled with HRP and used in solid phase ELISA to assess differential binding to either native or denatured collagen type-IV. Microtiter plates were coated with either native or denatured collagen type-IV and HRP-labeled CLK-peptide was allowed to bind. […] In contrast, CLK-Peptide readily bound to denatured collagen type-IV. […] To determine whether this cryptic epitope was also exposed within the ECM in vivo, biotin-labeled CLK-peptide was used to stain M21 human melanoma tumors growing in nude mice (results shown in FIGS. 16A and B and described in Example 15).

[2] = test system: Glioblastoma (GL261) cells; assay: GL261 glioblastoma cell adhesion to collagen type-IV; assay type: cell-based, murine
Protocol: FIG. 21 Effects of CLK-Peptide on Glioblastoma Cell Adhesion to Denatured Collagen Type-IV.
To assess the functional significance of the HUI77/CLK cryptic epitope, cell adhesion assays using a glioblastoma cell line were performed. Microtiter plates were coated with denatured collagen type-IV (10 μg/ml). Glioblastoma (GL261) cells were resuspended in adhesion buffer in the presence or absence of CLK-peptide or a non-specific control (CTW) peptide (50 μg/ml) and the […] were incubated in the coated wells for 30 minutes. Non-attached cells were removed by washing, and attached cells quantified by staining with crystal violet.

GL261 glioblastoma cells = assay: GL261 proliferation, CLK-peptide combined with ionizing radiation; assay type: cell-based, murine; conditions: CLK-peptide 50 μg/ml + 5.0 Gy, 3 days, P<0.050, versus control
Protocol: FIG. 24 CLK-Peptide Enhances Radiosensitivity of […] Glioblastoma. Percent inhibition of tumor cell proliferation was quantitated in the presence or absence of CLK-Peptide, ionizing radiation, and a combination of the two.
Microtiter wells were coated with denatured collagen type-IV (10 μg/ml). GL261 cells were resuspended in proliferation buffer containing 1% serum in the presence or absence of a sub-optimal amount of CLK-peptide or control peptide (CTW) (50 μg/ml).
The cells were added to the coated wells and allowed to incubate for 1 hour, then either untreated or irradiated with a single fraction dose of ionizing radiation (5.0 Gy). A ^60Co source (Theratron) was used to deliver a single fraction of 5 Gy. The cells, on a 30 cm^2 field, were irradiated from a distance of 80 cm with a gantry angle of 180 degrees on a solid water phantom at 0.5 cm depth.
Tumor cells were allowed to proliferate for 3 days and proliferation was quantified by measuring the relative amount of mitochondrial dehydrogenase using a WST-1 tetrazolium salt cleavage assays kit (Chemicon).

GL261 tumor cells = assay: GL261 cell migration, CLK-peptide combined with ionizing radiation (Example 22); assay type: cell-based, murine; conditions: 50 μg/ml + 5.0 Gy; 6 hours; versus controls
Protocol: The effects, of combining CLK-peptide with radiation therapy, on invasive tumor cell migration are examined. GL261 cells are resuspended in migration buffer in the presence or absence of CLK-peptide or control (50 μg/ml). The cells are added to the coated wells and allowed to incubate for 1 hour, and either left untreated or irradiated with a single fraction dose of ionizing radiation (5.0 Gy). The GL261 tumor cells are allowed to migrate for 6 hours. Tumor cells that have migrated to the underside of the coated membranes are quantified by staining with crystal violet, and the optical densities of cell-associated dye are measured with a microplate reader at a wavelength of 600 nm. CLK-peptide in combination with ionizing radiation is found to inhibit GL261 cell migration on denatured collagen type-IV substantially when compared to controls.

P27KIP1 = P27KIP1 expression by Western blot in tumor cells on denatured collagen; assay type: cell-based, murine; conditions: 24 hours
Protocol: FIG. 11 Inhibition of Cellular Interactions by CLK-Peptide Enhances Expression of P27KIP1. […] A. Treatment of B16F10 melanoma cells. B. Treatment of GL261 glioblastoma cells.
To determine whether the effect on inhibition of tumor proliferation and invasion in vivo differs in malignant tumors and normal tissue, the effect of CLK-peptide on gene expression was analyzed. Genes that regulate cell cycle control, including Cyclin Dependent Kinase (CDK) inhibitors known to regulate cellular proliferation, were studied. Tumor cells (B16F10 melanoma and GL261 glioblastoma) were resuspended in adhesion buffer in the presence or absence of CLK-peptide or control. Cells were added to culture plates coated with denatured collagen and allowed to incubate for 24 hours. Total cell lysates were prepared and the relative levels of the CDK inhibitor P27^KIP1 was examined by Western Blot analysis.

[3] = test system: denatured collagen type-IV; assay: Competition ELISA, mAb HUIV26 binding to denatured collagen type-IV with or without CLK-peptide; conditions: HUIV26 1 μg/ml; CLK-peptide 100 μg/ml; 2 hours 37° C.
Protocol: FIG. 14 Inhibition of Binding of Labeled CLK-Peptide to Denatured Collagen Type-IV by mAbs HUI77. To examine the binding specificity of the synthetic CLK-Peptide, the peptide was labeled and solid phase ELISAs were performed. Denatured collagen type-IV (10 μg/ml) was coated on microtiter wells and binding of either HRP-labeled CLK-Peptide or mAbs (mAbs HUI77 or HUIV26) was measured by ELISA at a wavelength of 490 nm. […] B. MAb HUIV26 was allowed to bind the denatured collagen in the presence or absence of CLK-Peptide.
Microtiter wells were coated with denatured collagen type-IV (1 μg/ml) overnight at 4° C., and the plates blocked with 1% BSA for 1 hour at 37° C. HUIV26 was added at 1 μg/ml and allowed to bind the denatured collagen in the presence or absence of 100 μg/ml CLK-peptide for 2 hours at 37° C. Labeled goat-anti-mouse antibody was added at 1:3000 and incubation was allowed for 1 hour at 37° C. Color solution, then a stopping solution of 4N sulfuric acid, were added and binding was quantified by measuring the O.D. at 490 nm. […] Similar results were obtained over a wide range of peptide and antibody concentrations (1 to 100 μg/ml) (data not shown).

**Q.** What does the source list for “H-CLKQNGGNFSLG-OH [CLK-peptide, NH2-C-L-K-Q-N-G-G-N-F-S-L-G-COOH]”?
**A.** binding to denatured collagen type-IV [1]: readily bound; inhibition of glioblastoma cell adhesion to denatured collagen type-IV ([2]; 50 μg/ml, 30 minutes): 90%; effect on glioblastoma cell adhesion to native intact collagen type-IV ([2]; data not shown): no effect; increase of the antiproliferative effects of a sub-optimal dose of ionizing radiation (GL261 glioblastoma cells): approximately 5 fold; inhibition of GL261 cell migration on denatured collagen type-IV in combination with ionizing radiation (GL261 tumor cells): substantially; P27KIP1 level (P27KIP1; B16F10 melanoma cells on denatured collagen): dramatic upregulation; P27KIP1 level (P27KIP1; GL261 glioblastoma cells on denatured collagen): dramatic upregulation; blocking of mAb HUIV26 binding to denatured collagen type-IV [3]: did not block
